Measurements taken from patent US20130109734A1 (Metabolex, Inc., priority 2010, published 2013).

target: T1, human GPR120 (Homo sapiens, UniProt Q5NUL3); test: Intracellular Ca2+ assay in human GPR120 stable cell line (HEK293 co-expressing Gqi5), Flexstation; format: cell-based; details: % activity at 5 μM compared to the maximal activity of GW9508 at 6.7 μM (=100%); human GPR120 cells, Ca2+ fluorescence
T1 construct: host or cells: HEK293 cells co-expressing Gqi5
T1 sequence (Q5NUL3 1-361): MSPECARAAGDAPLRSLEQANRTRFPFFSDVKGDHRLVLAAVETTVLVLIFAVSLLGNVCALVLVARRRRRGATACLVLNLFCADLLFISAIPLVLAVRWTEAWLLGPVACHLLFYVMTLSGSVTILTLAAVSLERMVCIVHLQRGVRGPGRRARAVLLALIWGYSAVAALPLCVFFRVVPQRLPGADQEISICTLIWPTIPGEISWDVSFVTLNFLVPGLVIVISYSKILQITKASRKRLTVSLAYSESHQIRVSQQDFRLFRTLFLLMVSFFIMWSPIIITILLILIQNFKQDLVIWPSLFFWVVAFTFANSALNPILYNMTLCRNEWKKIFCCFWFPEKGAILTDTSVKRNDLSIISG
Outline: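 HEK293 cells stably co-expressing Gqi5 and Flag-tagged human GPR120, loaded with Calcium 4 dye in HBSS/HEPES pH 7.4 at 37 °C; compounds at eight concentrations, 0.00001–20 μM, fluorescence (485/525 nm) read 90 s. EC50 from Max−Min change; percent activity relative to GW9508 maximum at 6.7 μM.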

Row | Structure (SMILES) | % Activity (GW9508 Reference Compound)
1 | [2H]C1([2H])c2cc(Cl)cc(COc3ccc(CC(C)C(=O)O)cc3C(F)(F)F)c2OC1(C)C (stereo not shown) [Example 147, 3-(4-((3,3-dideuterio-5-chloro-2,2-dimethyl-2,3-dihydrobenzofuran-7-yl)methoxy)-3-(trifluoromethyl)phenyl)-2-methylpropanoic acid] | 138.65%
2 | CC(Cc1ccc(OCc2cc(Cl)cc3c2OCC3(C)C)cc1)C(=O)O (stereo not shown) [Example 148, 3-(4-((5-chloro-3,3-dimethyl-2,3-dihydrobenzofuran-7-yl)methoxy)phenyl)-2-methylpropanoic acid] | 113.89%
3 | Cc1cc2cccc(COc3c(F)cc(CC(C)C(=O)O)cc3F)c2s1 (stereo not shown) [Example 151, 3-(3,5-difluoro-4-((2-methylbenzo[b]thiophen-7-yl)methoxy)phenyl)-2-methylpropanoic acid] | 117.38%
4 | CC1(C)Cc2cc(Cl)cc(COc3ccc(C(C)(C)CC(=O)O)cc3)c2O1 [Example 156, 3-(4-((5-chloro-2,2-dimethyl-2,3-dihydrobenzofuran-7-yl)methoxy)phenyl)-3-methylbutanoic acid] | 148.87%
5 | O=C(O)C1CC1c1ccc(OCc2cc(F)cc3c2OC2(CCCC2)C3)cc1 (stereo not shown) [Example 165, 2-(4-((5-fluoro-3H-spiro[benzofuran-2,1′-cyclopentane]-7-yl)methoxy)phenyl)cyclopropanecarboxylic acid] | 158.08%
6 | CC(CCc1ccc(OCc2cc(F)cc3c2OC(C)(C)C3)cc1)C(=O)O (stereo not shown) [Example 171, 4-(4-((5-fluoro-2,2-dimethyl-2,3-dihydrobenzofuran-7-yl)methoxy)phenyl)-2-methylbutanoic acid] | 98.97%
7 | CC1(C)Cc2cc(F)cc(COc3ccc4c(c3)CC[C@H]4CC(=O)O)c2O1 [Example 175, (S)-2-(5-((5-fluoro-2,2-dimethyl-2,3-dihydrobenzofuran-7-yl)methoxy)-2,3-dihydro-1H-inden-1-yl)acetic acid] | 152.44%
8 | CC1(C)Cc2cc(Cl)cc(COc3ccc4c(c3)CC[C@H]4CC(=O)O)c2O1 [Example 176, (S)-2-(5-((5-chloro-2,2-dimethyl-2,3-dihydrobenzofuran-7-yl)methoxy)-2,3-dihydro-1H-inden-1-yl)acetic acid] | 138.42%
9 | CC1(C)Cc2cc(Cl)cc(COc3ccc4c(c3)CC[C@@H]4CC(=O)O)c2O1 [Example 179, (R)-2-(5-((5-chloro-2,2-dimethyl-2,3-dihydrobenzofuran-7-yl)methoxy)-2,3-dihydro-1H-inden-1-yl)acetic acid] | 105.44%
10 | CC(CC(=O)O)Cc1ccc(OCc2cc(F)cc3c2OC(C)(C)C3)cc1 (stereo not shown) [Example 182, 4-(4-((5-fluoro-2,2-dimethyl-2,3-dihydrobenzofuran-7-yl)methoxy)phenyl)-3-methylbutanoic acid] | 98.43%
11 | CC1(C)Cc2c(COc3ccc4c(c3)CC[C@@H]4CC(=O)O)cc(F)cc2O1 [Example 188, (R)-2-(5-((6-fluoro-2,2-dimethyl-2,3-dihydrobenzofuran-4-yl)methoxy)-2,3-dihydro-1H-inden-1-yl)acetic acid] | 104.04%
12 | COc1cc(OCc2cc(Cl)cc3c2OC2(CCCC2)C3)ccc1CCC(=O)O [Example 194, 3-(4-((5-chloro-3H-spiro[benzofuran-2,1′-cyclopentane]-7-yl)methoxy)-2-methoxyphenyl)propanoic acid] | 148.21%
13 | Cc1c(CCC(=O)O)ccc(OCc2cc(F)cc3c2OC(C)(C)C3)c1C [Example 208, 3-(4-((5-fluoro-2,2-dimethyl-2,3-dihydrobenzofuran-7-yl)methoxy)-2,3-dimethylphenyl)propanoic acid] | 147.47%
14 | CCc1c(CCC(=O)O)ccc(OCc2cc(F)cc3c2OC(C)(C)C3)c1F [Example 216, 3-(2-ethyl-3-fluoro-4-((5-fluoro-2,2-dimethyl-2,3-dihydrobenzofuran-7-yl)methoxy)phenyl)propanoic acid] | 144.23%
15 | [2H]C([2H])(Oc1ccc(CC(C)C(=O)O)cc1F)c1cc(F)cc2c1OC(C)(C)C2 (stereo not shown) [Example 230, 3-(4-(dideuterio(5-fluoro-2,2-dimethyl-2,3-dihydrobenzofuran-7-yl)methoxy)-3-fluorophenyl)-2-methylpropanoic acid] | 86.25%

Further lines, results first:

Row | % Activity (GW9508 Reference Compound) | Structure (SMILES)
16 | 143.69% | [2H]C1([2H])c2cc(F)cc(COc3ccc(CC(C)C(=O)O)cc3)c2OC1(C)C (stereo not shown) [Example 145, 3-(4-((3,3-dideuterio-5-fluoro-2,2-dimethyl-2,3-dihydrobenzofuran-7-yl)methoxy)phenyl)-2-methylpropanoic acid]
17 | 140.72% | [2H]C1([2H])c2cc(Cl)cc(COc3ccc(CC(C)C(=O)O)cc3F)c2OC1(C)C (stereo not shown) [Example 146, 3-(4-((3,3-dideuterio-5-chloro-2,2-dimethyl-2,3-dihydrobenzofuran-7-yl)methoxy)-3-fluorophenyl)-2-methylpropanoic acid]
18 | 83.81% | Cc1cc2cccc(COc3ccc4c(c3)CCC4CC(=O)O)c2s1 (stereo not shown) [Example 152, 2-(5-((2-methylbenzo[b]thiophen-7-yl)methoxy)-2,3-dihydro-1H-inden-1-yl)acetic acid]
19 | 106.81% | CC1(C)Cc2cc(F)cc(COc3ccc4c(c3)CCCC4CC(=O)O)c2O1 (stereo not shown) [Example 153, 2-(6-((5-fluoro-2,2-dimethyl-2,3-dihydrobenzofuran-7-yl)methoxy)-1,2,3,4-tetrahydronaphthalen-1-yl)acetic acid]
20 | 164.79% | CC(Cc1ccc(OCc2cc(Cl)cc3c2OC2(CCCC2)C3)cc1)C(=O)O (stereo not shown) [Example 159, 3-(4-((5-chloro-3H-spiro[benzofuran-2,1′-cyclopentane]-7-yl)methoxy)phenyl)-2-methylpropanoic acid]
21 | 172.13% | CC1(C)Cc2cc(F)cc(COc3ccc(CCCC(=O)O)cc3)c2O1 [Example 160, 4-(4-((5-fluoro-2,2-dimethyl-2,3-dihydrobenzofuran-7-yl)methoxy)phenyl)butanoic acid]
22 | 154.48% | CC(Cc1ccc(OCc2cc(F)cc3c2OC2(CCCC2)C3)cc1)C(=O)O (stereo not shown) [Example 162, 3-(4-((5-fluoro-3H-spiro[benzofuran-2,1′-cyclopentane]-7-yl)methoxy)phenyl)-2-methylpropanoic acid]
23 | 159.06% | COc1cc(CCC(=O)O)ccc1OCc1cc(F)cc2c1OC(C)(C)C2 [Example 173, 3-(4-((5-fluoro-2,2-dimethyl-2,3-dihydrobenzofuran-7-yl)methoxy)-3-methoxyphenyl)propanoic acid]
24 | 106% | CC1(C)Cc2cc(F)cc(COc3ccc4c(c3)CC[C@@H]4CC(=O)O)c2O1 [Example 178, (R)-2-(5-((5-fluoro-2,2-dimethyl-2,3-dihydrobenzofuran-7-yl)methoxy)-2,3-dihydro-1H-inden-1-yl)acetic acid]
25 | 151.44% | CC1(C)Cc2cc(F)cc(COc3cc(Cl)c(CCC(=O)O)c(Cl)c3)c2O1 [Example 197, 3-(2,6-dichloro-4-((5-fluoro-2,2-dimethyl-2,3-dihydrobenzofuran-7-yl)methoxy)phenyl)propanoic acid]
26 | 111.45% | Cc1cc(OCc2cc(F)cc3c2OC(C)(C)C3)c(C)cc1CCC(=O)O [Example 206, 3-(4-((5-fluoro-2,2-dimethyl-2,3-dihydrobenzofuran-7-yl)methoxy)-2,5-dimethylphenyl)propanoic acid]
27 | 142.22% | Cc1c(CCC(=O)O)ccc(OCc2cc(Cl)cc3c2OC(C)(C)C3)c1C [Example 209, 3-(4-((5-chloro-2,2-dimethyl-2,3-dihydrobenzofuran-7-yl)methoxy)-2,3-dimethylphenyl)propanoic acid]
28 | 143.21% | Cc1cc(OCc2cc(F)cc3c2OC(C)(C)C3)c(F)cc1CCC(=O)O [Example 214, 3-(5-fluoro-4-((5-fluoro-2,2-dimethyl-2,3-dihydrobenzofuran-7-yl)methoxy)-2-methylphenyl)propanoic acid]
29 | 114.48% | CC1(C)Cc2cc(F)cc(COc3ccc(CCC(=O)O)c4c3CCCC4)c2O1 [Example 218, 3-(4-((5-fluoro-2,2-dimethyl-2,3-dihydrobenzofuran-7-yl)methoxy)-5,6,7,8-tetrahydronaphthalen-1-yl)propanoic acid]
30 | 115.86% | CCc1cc(OCc2cc(F)cc3c2OC(C)(C)C3)c(F)cc1CCC(=O)O [Example 220, 3-(2-ethyl-5-fluoro-4-((5-fluoro-2,2-dimethyl-2,3-dihydrobenzofuran-7-yl)methoxy)phenyl)propanoic acid]
31 | 119.11% | [2H]C([2H])(Oc1ccc(CCC(=O)O)c(CC)c1F)c1cc(F)cc2c1OC(C)(C)C2 [Example 228, 3-(4-(dideuterio(5-fluoro-2,2-dimethyl-2,3-dihydrobenzofuran-7-yl)methoxy)-3-fluoro-2-ethylphenyl)propanoic acid]
